{"source": "paper PMC9428149", "about": "“Tackling recalcitrant Pseudomonas aeruginosa infections in critical illness via anti-virulence monotherapy” (Nature Communications, 2022)", "key": {"[1]": {"system": "A549 cells", "test": "MTT cytotoxicity, A549", "format": "cell-based, human", "settings": "for Cell viability (MTT) relative to Vehicle: A549, replicates", "protocol": "For the determination of cytotoxicity, cell viability was determined using the MTT (3-[4, 5-dimethyl-2-thiazolyl]−2, 5-diphenyl-2H-tetrazolium bromide) assay in the presence and absence of compound (D88). […] The cells were then treated with either vehicle or different concentrations of D88 (10, 20, 30, 40, and 50 µM) for 24 h at 37 °C and 5% CO2. After 24 h, the cells were washed three times with PBS and were incubated in 200 μL PBS containing 200 μg mL^−1 MTT (Sigma-Aldrich) in a 96-well culture plate for 2 h at 37 °C and 5% CO2. Following incubation, the supernatant was discarded, and the cells were lysed in 95% isopropanol and 5% formic acid."}, "[2]": {"system": "TNF-α", "test": "Ileal TNF-α ELISA", "format": "in vivo, mouse", "settings": "burn + PA14 + D88, 22 h", "protocol": "(§1) For the group supplemented with our MvfR-inhibiting compound (D88), mice received five subcutaneous injections (at the nape of the animals) at 1, 4, 8, 12, and 18 h post-BI, at a dose of 24 mg kg^−1 body weight. D88 was prepared in a 40% Captisol vehicle. Control groups received equivalent doses of 40% Captisol vehicle.\nDistal ileal TNF-α and IL-6 were quantified using the mouse TNF-α enzyme-linked immunosorbent assay [ELISA] Ready-SET-Go kit (eBioscience; San Diego, CA, USA) and the Mouse IL-6 DuoSet ELISA (R&D Systems) respectively, as per the manufacturer’s instructions."}, "[3]": {"system": "claudin-1", "test": "Tight junction claudin-1 immunofluorescence, distal ileum", "format": "in vivo, mouse", "protocol": "as §1\nSamples of distal ileum fixed with 4% paraformaldehyde were cut in sections and mounted on microscope slides. After deparaffinization and antigen retrieval (Antigen Retrieval reagent; R&D Systems, Minneapolis, MN, USA), tissue sections were immersed in PBS/0.1 tween for 10 min and were blocked by Normal Goat Serum. They were then incubated with primary antibody rabbit polyclonal anti-claudin-1 (Catalog# 71-7800; final concentration, 1:100; Invitrogen, Rockford, IL, USA) overnight in a humid chamber at 4 °C. The sections were washed three times with PBS and secondary antibody goat anti-rabbit (Catalog# ab150061; final concentration: 1:500; Abcam, Cambridge, MA, USA) and DAPI (Catalog# ab228549; Abcam, Cambridge, MA, USA) were added, and incubated 1 h at room temperature. The sections were then washed three times with PBS, dried, and mounted, and images were collected using a confocal microscope (Nikon ECLIPSE Ti2; NIS-Elements AR 5.21.03; Nikon Instruments Inc., Tokyo, Japan)."}}, "note": "Several values for one entry are separate records, joined by “and”; a condition that tells them apart may be missing. Identical values can stand only once. Entries after “also recorded” stand apart in the source; their conditions may differ.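 For Claudin-1 immunofluorescence quantification (Supplimentary Figure 9) in this document: fluorescence intensity in arbitrary units.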"}
{"smiles": "N#Cc1ccc(NC(=O)C(F)C(=O)Nc2ccc(Oc3ccccc3)cc2)cc1", "note": "(stereo not drawn) [D88]", "values": [{"measurement": "cell viability", "setting": "[1]; A549, 10-50 µM, 24 h", "value": "None of the used compound concentrations exerted any cytotoxic effect; also recorded: no significant changes in cell viability"}, {"measurement": "Cell viability (MTT) relative to Vehicle", "setting": "[1]; 10 μM", "value": "104.92 and 112.79 and 105.24 and 97.24 and 88.17"}, {"measurement": "Cell viability (MTT) relative to Vehicle", "setting": "[1]; 20 μM", "value": "104.85 and 98.03 and 95.15 and 98.27 and 93.91"}, {"measurement": "Cell viability (MTT) relative to Vehicle", "setting": "[1]; 30 μM", "value": "88.06 and 91.37 and 110.19 and 88.29 and 118.10"}, {"measurement": "Cell viability (MTT) relative to Vehicle", "setting": "[1]; 40 μM", "value": "104.24 and 86.59 and 104.97 and 101.16 and 96.70"}, {"measurement": "Cell viability (MTT) relative to Vehicle", "setting": "[1]; 50 μM", "value": "95.15 and 105.16 and 99.77 and 98.12"}, {"measurement": "mean ileal TNF-α level", "setting": "[2]", "value": 381, "unit": "pg mL^−1 g^−1 tissue"}, {"measurement": "Claudin-1 immunofluorescence quantification (Supplimentary Figure 9)", "setting": "[3]; PA14+D88 group, compare Sham, PA14+Vehicle, ΔmvfR, individual measurements", "value": "148.508 and 162.001 and 157.541 and 137.39 and 152.028 and 182.597 and 148.327 and 116.923 and 109.707 and 109.463"}, {"measurement": "claudin-1 staining fluorescence intensity", "setting": "[3]; ileum, PA14 infected + D88, 22 h", "value": 142.48, "unit": "AUs"}]}
